According to patent US7678549B2, “Polyphenol inhibition of nucleoside diphosphate kinase-B activity and cancer metastasis” (Research Development Foundation, priority 2001, dated 2010):

How the values were obtained:
[1] = test system: guinea pig thoracic aorta; experiment: Thoracic aorta in organ bath, measurement of tension; details: for effect on norepinephrine-contracted aorta: added at peak norepinephrine contraction, endothelium present
[2] = target: T1, tumor cell-secreted nucleoside diphosphate kinase-B (NDPK-B, Nm23-H2) (Homo sapiens, UniProt P22392); experiment: NDPK-B kinase activity assay (ADP to ATP with GTP as phosphoryl donor, luciferin-luciferase); format: biochemical; details: for Km: KM of NDPK-B for ADP in presence of the inhibitor; for Inhibition / IC50: inhibition of NDPK-B activity; for Inhibition: Yes/No, conc. tested differs per compound (0.3-10,000 μM); for inhibition of nucleoside diphosphate kinase-B activity (in words): summary of Table 1
T1 construct: Partially purified tumor cell-secreted nucleoside diphosphate kinase-B was incubated with ADP and GTP; endogenous in cells; host or cells: human tumor cell lines MDA-MB-435s, Calu-1, WiDr and PC-3; concentrated conditioned Krebs buffer
T1 sequence (P22392 whole entry): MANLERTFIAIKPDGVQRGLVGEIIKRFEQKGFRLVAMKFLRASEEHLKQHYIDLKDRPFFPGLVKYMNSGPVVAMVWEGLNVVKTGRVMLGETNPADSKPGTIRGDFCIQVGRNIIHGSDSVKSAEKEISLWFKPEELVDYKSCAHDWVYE
Experimental: The human tumors MDA-MB-435s (breast ductal carcinoma), Calu-1 (metastatic lung carcinoma), WiDr (colorectal carcinoma), and PC-3 (prostatic carcinoma) were grown to confluence in DMEM with 10% heat-inactivated FBS and antibiotics. Media was replaced with Krebs buffer (25 mM Hepes, pH 7.4) and incubated at 37° C. with gentle rocking for 4 hours. The supernatant was removed and concentrated by spin concentrators. Nucleoside diphosphate kinase activity of the retentate was assayed for activity and stored at −20° C.
Conversion of ADP to ATP, using GTP as the phosphoryl donor, was quantified using the Luciferin-Luciferase ATP assay as we have previously described (9). All necessary steps were taken to eliminate and account for interference between potential nucleoside diphosphate kinase-B inhibitors and the luciferase in the assay.
Partially purified tumor cell-secreted nucleoside diphosphate kinase-B was incubated with ADP and GTP in the presence of varying concentrations of putative nucleoside diphosphate kinase inhibitors or putative metastasis/angiogenesis inhibitors and the resulting ATP generated was measured by chemiluminescence using the luciferin-luciferase assay. […] Molecular modeling studies support these kinetic assumptions (data not shown).

[3] = test system: Endothelial cells (CD31+ cells from guinea pig hearts); experiment: Angiogenesis assay (endothelial tube formation on EHS matrix); format: cell-based; details: 30 and 100 μM, ~16 hrs, endothelial tubes on EHS matrix
Experimental: Endothelial cells (CD31^+ cells from guinea pig hearts) were plated on a matrix composed of basement proteins from the Engelbreth Holm-Swarm (EHS) mouse tumor. The cells were incubated for 16 hrs in Complete Dulbecco's Modified Eagle Medium (CDMEM) with added tea catechins ellagic acid (EA), epigallocatechin gallate (EGCG), and epicatechin gallate (ECG). Bright field images were taken using a Nikon phase-contrast microscope and a Pulnix digital camera. […] Data are representative of two experiments. Fluorescence activated cell sorting (FACS) was used to select cardiac endothelial cells positive for the PECAM marker CD31. Endothelial cells were plated on a matrix of basement proteins from the Engelbreth Holm-Swarm (EHS) mouse tumor. A complete DME media containing 10% FBS was used to maintain endothelial cultures. Differentiation of the cells into endothelial tubes was monitored in the presence and absence of the compounds of interest.

[4] = test system: Human endothelial cells monolayer; experiment: Tumor cell-induced paracellular holes in endothelial cell monolayers; format: cell-based; details: added at the same time as tumor cells
Source text: Additional studies aimed at direct analysis of the ability of polyphenolic catechin gallates to prevent breast cancer cell entry into and exit from vessels has been addressed by examining the ability of tumor cells to induce paracellular passages in endothelial cells monolayers in culture. Human endothelial cells grown to confluence in culture can be examined as a model of capillary intravasation or extravasation as in cases of human breast cancer metastasis in vivo, by examining their ability to form large (>30 μm) holes between cells (paracellular holes). […] Addition of tumor cells on top of the monolayer at concentrations of 1 cancer cell per 10,000 endothelial cells leads to the wide-spread appearance of large paracellular holes in the monolayer within 15 minutes of application of tumor cells. […] The effect is complete at 30 μM epigallocatechin gallate. Careful quantification of the presence of paracellular holes is underway using video imaging.

caspase-3 = experiment: Caspase-3 activity in staurosporine-treated endothelial cells; format: cell-based, guinea pig; details: for caspase-3 activity (DEVDase): near-confluent monolayers of endothelial cells, cyclodextrin as pretreatment before staurosporine; for caspase-3 fluorescent substrate pattern in intact cells: staurosporine for 3 hours, with or without cholesterol-altering agents
Experimental: Control cells received 0.05% DMSO final as a control for drug vehicle (n=4). Clarified supernatants from detergentsolubilized cells are assayed for DEVDase activity using the colorimetric caspase-3 substrate DEVD-pnitroaniline.
The sequestration of cholesterol from the plasma membrane can disrupt the localization of proteins within caveolae and lipid rafts, which has shown to interrupt signaling pathways.
Using a fluorescent substrate, caspase-3 activity can b e visualized in intact cell preparations.

Row | Compound | Inhibition [2] | inhibition of nucleoside diphosphate kinase-B activity (in words) [2] | IC50 [2] [mM] | also measured
1 | CSc1nc(N)c2ncn([C@@H]3O[C@H](COP(=O)(O)OP(=O)(O)OP(=O)(O)O)[C@@H](O)[C@H]3O)c2n1 [2-methyl thio-ATP] |  |  |  | effect on norepinephrine-contracted aorta [1]: completely relaxes
2 | Nc1ncnc2c1nc(Cl)n2[C@@H]1O[C@@H]2COP(=O)(O)O[C@H]2[C@H]1O [8-Cl-cAMP] | Yes | relatively low potency |  | Km [2]: 7.5 ± 1.5 µM; IC50 ([2]; value in mM): ~1 mM
3 | Cc1cn([C@H]2C[C@H](N=[N+]=[N-])[C@@H](CO)O2)c(=O)[nH]c1=O [AZT] | No |  |  | 
4 | O=C(O[C@@H]1Cc2c(O)cc(O)cc2O[C@@H]1c1ccc(O)c(O)c1)c1cc(O)c(O)c(O)c1 [ECG, epicatechin gallate] | Yes |  | 0.17 | inhibition of angiogenesis [3]: dose-dependent inhibition of angiogenesis
5 | Oc1cc(O)c2c(c1)O[C@H](c1cc(O)c(O)c(O)c1)[C@H](O)C2 [EGC, epigallocatechin] | No | inhibited |  | 
6 | O=C(O[C@@H]1Cc2c(O)cc(O)cc2O[C@@H]1c1cc(O)c(O)c(O)c1)c1cc(O)c(O)c(O)c1 [EGCG, epigallocatechin gallate] | Yes | inhibited | 0.15 | Km [2]: 9.7 ± 1.8 µM; inhibition of angiogenesis [3]: dose-dependent inhibition of angiogenesis; formation of paracellular passages (holes >30 μm) induced by tumor cells ([4]; 1 to 100 μM): prevents the formation of the paracellular passages in a dose-dependent fashion; concentration at which prevention of paracellular passages is complete [4]: 30 µM; effect on norepinephrine-contracted aorta [1]: further small contraction of the vessel followed by relaxation; effect on norepinephrine-contracted aorta ([1]; listed as epigallocatechin gallate): dramatic relaxation; effect on aorta in the absence of endothelium ([1]; norepinephrine-contracted, endothelium absent): both contraction and relaxation are lost; EGCG-dependent relaxation after pretreatment with L-NAME ([1]; pretreatment with nitric oxide synthase inhibitor L-NAME): blocks epigallocatechin gallate-dependent relaxation
7 | O=c1oc2c(O)c(O)cc3c(=O)oc4c(O)c(O)cc1c4c23 [Ellagic Acid, hexahydroxydiphenic acid dilactone] | Yes | highest inhibitory effect | 0.023 | inhibition of angiogenesis [3]: dose-dependent inhibition of angiogenesis
8 | O=c1c(-c2ccc(O)cc2)coc2cc(O)cc(O)c12 [Genestein, genestein] | No |  |  | 
9 | Nc1ncnc2c1ncn2[C@@H]1O[C@H](COP(=O)(O)OS(=O)(=O)O)[C@@H](OP(=O)(O)O)[C@H]1O [PAPS] | Yes | relatively low potency | 0.5 | Km [2]: 7.1 ± 1.4 µM
10 | O=c1c(O)cccc2cc(O)c(O)c(O)c12 [Purpurogallin] | Yes |  | 0.6 | 
11 | Oc1ccc(C=Cc2cc(O)cc(O)c2)cc1 [Resveratrol, resveratrol] | No |  |  | 
12 | CN[C@@H]1C[C@H]2O[C@@](C)([C@@H]1OC)n1c3ccccc3c3c4c(c5c6ccccc6n2c5c31)C(=O)NC4 [Staurosporine] |  |  |  | caspase-3 activity (DEVDase) (caspase-3): induce caspase-3 activity; caspase-3 fluorescent substrate pattern in intact cells (caspase-3): punctate fluorescence
13 | NC[C@H](O)c1ccc(O)c(O)c1 [norepinephrine] |  |  |  | contraction of aorta ([1]; addition to resting vessel): contraction that is stable over time
14 | fillipin III |  |  |  | caspase-3 fluorescent substrate pattern in intact cells (caspase-3): global diffuse fluorescence
15 | β methyl-cyclodextrin |  |  |  | caspase-3 activity (DEVDase) (caspase-3): enhances enzymatic activity; caspase-3 fluorescent substrate pattern in intact cells (caspase-3): global diffuse fluorescence
